Measurements reported in patent US12336991B2, “Factor XIIA inhibitors” (UNIVERSITY OF LEEDS, priority 2018, dated 2025).

Assays:
Type in all cases: biochemical
FXa = FXa (Homo sapiens, UniProt P00742); assay: Determination of selectivity: FXa inhibition, chromogenic substrate S2765 assay; conditions: fold selectivity for FXIIa over FXa
In short: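 Human FXa (5 nM) preincubated with compound (top 500 μM, 5% DMSO) 10 min at 37 °C in 50 mM Tris, 137 mM NaCl pH 7.4, then S2765 ([…]) added; A405 kinetics over 3 h at 37 °C. IC50 from initial rates, converted to Ki via Cheng-Prusoff.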

thrombin = molecular target: T1, thrombin (Homo sapiens, UniProt P00734); assay: Determination of selectivity: thrombin inhibition, chromogenic substrate GPR assay; conditions: fold selectivity for FXIIa over thrombin
T1 construct: FXa (5 nM) and thrombin (5 nM)
In short: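 Thrombin (5 nM) preincubated with compound 10 min at 37 °C in 50 mM Tris, 137 mM NaCl, pH 7.4, 5% DMSO, then GPR substrate ([…]) added. Absorbance at 405 nm read kinetically for 3 h; IC50 from initial rates, converted to Ki via Ki=IC50/(1+[S]/Km).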

FXIIa = molecular target: T2, FXIIa (Homo sapiens, UniProt P00748); assay: Determination of Factor XIIa inhibition, chromogenic substrate S-2302 assay; conditions: human FXIIa alpha
T2 sequence (P00748 373-615 limits assumed): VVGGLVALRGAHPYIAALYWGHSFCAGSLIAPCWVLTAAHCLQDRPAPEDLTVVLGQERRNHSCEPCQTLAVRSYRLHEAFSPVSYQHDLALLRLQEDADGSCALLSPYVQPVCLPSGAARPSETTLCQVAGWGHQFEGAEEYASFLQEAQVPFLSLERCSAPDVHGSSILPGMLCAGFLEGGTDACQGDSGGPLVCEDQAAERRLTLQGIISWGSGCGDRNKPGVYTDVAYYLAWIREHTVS
T2 sequence (P00748 20-372 partner limits assumed): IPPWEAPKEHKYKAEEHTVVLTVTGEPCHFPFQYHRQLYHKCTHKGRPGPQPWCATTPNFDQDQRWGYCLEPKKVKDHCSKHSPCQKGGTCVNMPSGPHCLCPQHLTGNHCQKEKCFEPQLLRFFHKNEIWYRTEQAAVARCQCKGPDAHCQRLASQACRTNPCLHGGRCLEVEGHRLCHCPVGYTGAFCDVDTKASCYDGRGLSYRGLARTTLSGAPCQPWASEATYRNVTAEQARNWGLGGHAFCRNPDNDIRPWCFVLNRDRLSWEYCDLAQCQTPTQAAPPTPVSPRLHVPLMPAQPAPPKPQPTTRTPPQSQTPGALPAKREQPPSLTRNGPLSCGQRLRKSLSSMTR
In short: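 FXIIa (10 nM) preincubated with compound 10 min at 37° C. in 50 mM Tris, 137 mM NaCl pH 7.4, 5% DMSO, top concentration 500 μM, then S-2302 added ([…]). Absorbance at 405 nm read kinetically for 3 h; IC50 from initial rates, converted to Ki by Cheng-Prusoff.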

Chain of FXa (P00742 235-488 limits assumed): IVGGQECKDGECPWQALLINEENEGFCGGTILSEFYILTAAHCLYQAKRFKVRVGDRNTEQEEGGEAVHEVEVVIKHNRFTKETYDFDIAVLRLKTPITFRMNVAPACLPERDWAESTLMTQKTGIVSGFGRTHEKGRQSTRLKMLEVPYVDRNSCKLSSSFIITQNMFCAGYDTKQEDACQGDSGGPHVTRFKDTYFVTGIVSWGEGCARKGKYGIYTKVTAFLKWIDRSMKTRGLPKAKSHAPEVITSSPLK
Chain of FXa (P00742 41-179 partner limits assumed): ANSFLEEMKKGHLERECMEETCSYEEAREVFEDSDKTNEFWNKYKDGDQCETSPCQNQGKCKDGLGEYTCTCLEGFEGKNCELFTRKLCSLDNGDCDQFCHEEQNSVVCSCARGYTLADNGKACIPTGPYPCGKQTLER

SMILES | FXa (human)/FXIIa alpha (human) (FXa) | Thrombin (human)/FXIIa alpha (human) (thrombin) | Ki (FXIIa)
CN(C)[C@H](CCC(=O)N1CCCC1)C(=O)N1C[C@H](Cc2cccnc2)C[C@H]1C(=O)NCc1ccc2c(cnn2C)c1 [Example M05223] | ∘∘∘ | +++ (fold selectivity values greater than 100) | 200 to 2000 nM
Cn1nc(Cl)c2cc(CNC(=O)[C@@H]3C[C@@H](Cc4cccnc4)CN3C(=O)[C@H](N)CCC(=O)N3CCCC3)ccc21 [Example M05224] | ∘∘∘ | +++ (fold selectivity values greater than 100) | < 200 nM
Cn1ncc2cc(CNC(=O)[C@@H]3C[C@@H](Cc4cccnc4)CN3C(=O)[C@H](N)CCC(=O)N3CCCC3)ccc21 [Example M05228] | ∘∘∘ | +++ (fold selectivity values greater than 100) | 200 to 2000 nM
Cn1nnc2cc(CNC(=O)[C@@H]3C[C@H](Cc4cccc(F)c4)CN3C(=O)[C@H](N)CCC(=O)N3CCCC3)ccc21 [Example M05232] | ∘∘∘ | +++ (fold selectivity values greater than 100) | 200 to 2000 nM
Cn1nnc2cc(CNC(=O)[C@@H]3C[C@@H](Cc4ccc(F)cc4F)CN3C(=O)[C@H](N)CCC(=O)N3CCCC3)ccc21 [Example M05235] | ∘∘∘ | +++ (fold selectivity values greater than 100) | < 200 nM
Nc1nccc2cc(CNC(=O)[C@@H]3CCCN3C(=O)[C@H](N)CCc3ccccc3)ccc12 [Example M05237] | ∘∘ | + (fold selectivity values less than 10) | 200 to 2000 nM
Cn1nc(Cl)c2cc(CNC(=O)[C@@H]3C[C@@H](Cc4ccncc4)CN3C(=O)[C@H](N)CCC(=O)N3CCCC3)ccc21 [Example M05241] | ∘∘∘ | ++ (fold selectivity value of 10 to 100) | < 200 nM
CN(C1CCCCC1)C1C[C@@H](C(=O)NCc2ccc3c(c2)nnn3C)N(C(=O)[C@H](N)CCc2ccccc2)C1 (stereo partly drawn) [Example M05242] | ∘∘ | ++ (fold selectivity value of 10 to 100) | > 2000 nM
Cn1nnc2cc(CNC(=O)[C@@H]3C[C@H](Nc4cnccn4)CN3C(=O)[C@H](N)CCC(=O)N3CCCC3)ccc21 [Example M05243] | ∘∘ | ++ (fold selectivity value of 10 to 100) | > 2000 nM
Cn1ncc2cc(CNC(=O)[C@@H]3C[C@@H](Cc4ccncc4)CN3C(=O)[C@H](N)CCC(=O)N3CCCC3)ccc21 [Example M05244] | ∘∘∘ | +++ (fold selectivity values greater than 100) | < 200 nM
Cn1nnc2cc(CNC(=O)[C@@H]3C[C@@H](Cc4ccncc4)CN3C(=O)[C@@H](CCC(=O)N3CCCC3)NCCC(F)(F)F)ccc21 [Example M05262] | ∘∘ | ++ (fold selectivity value of 10 to 100) | > 2000 nM
Nc1nccc2cc(CNC(=O)[C@@H]3C[C@H](C(F)(F)F)CN3C(=O)[C@H](N)CCC(=O)N3CCCC3)ccc12 [Example M05265] | ∘ | + (fold selectivity values less than 10) | 200 to 2000 nM
Nc1nccc2cc(CNC(=O)[C@@H]3C[C@@H](Cc4cccc(Cl)c4)CN3C(=O)[C@H](N)CCC(=O)N3CCCC3)ccc12 [Example M05266] | ∘∘ | + (fold selectivity values less than 10) | 200 to 2000 nM
Cn1nnc2cc(CNC(=O)[C@@H]3C[C@@H](Cc4ccncc4)CN3C(=O)[C@@H](CCC(=O)N3CCCC3)NC(=O)Cc3ccccc3)ccc21 [Example M05267, (2S,4R)-1-((R)-5-Oxo-2-phenylacetylamino-5-pyrrolidin-1-yl-pentanoyl)-4-pyridin-4-ylmethyl-pyrrolidine-2-carboxylic acid (1-methyl-1H-benzotriazol-5-ylmethyl)-amide] | ∘∘ | ++ (fold selectivity value of 10 to 100) | > 2000 nM
